{
  "source": "patent US20150366839A1",
  "about": "“Schisantherin A for the treatment of neurodegenerative diseases” (priority 2014, published 2015)",
  "key": {"[1]": {"system": "caspase-7", "test": "MPP+-induced caspase-7 activation, Western blot", "assay_type": "cell-based, Human", "settings": "60 μM 12 h, then 2 mM MPP+ 36 h", "protocol": "(§1) After treatment, SH-SY5Y cells were washed three times with PBS and then lysis with RIPA lysis buffer containing 1% PMSF and 1% Protease Inhibitor Cocktail and incubated for 30 min on ice. Cell lysates were centrifuged at 12,500 g for 20 min at 4° C. The supernatant was separated and the amount of protein was determined using the BCA protein assay kit (Thermo Scientific Pierce, USA). Protein samples (30 μg) were separated by SDS-PAGE (10% (w/v)) polyacrylamide gel and then transferred to a polyvinylidene difluoride (PVDF) membrane (Bio-Rad, Hercules, Calif.). Subsequently, the membrane was blocked with 5% (v/v) non-fat milk in PBST (PBS containing 0.1% Tween 20) for 1 h at room temperature. The blots were incubated overnight at 4° C. with primary antibodies. After three washes with PBST, the membranes were incubated with horseradish peroxidase-conjugated secondary antibodies (1:2000) in PBST with 5% non-fat milk for 1 h at room temperature. […] Quantitative assessment of protein bands was done with Gel Doc™ XRS equipped with Quantity One software.\nThe inventors performed Western blot to measure the expression of active-form of caspase-3 and caspase-7 in SH-SY5Y cells. […] Caspase-3 activity was expressed as units per mg protein. ###p<0.005 versus control group; *p<0.05, **p<0.01 and *** p<0.005 versus MPP+ group."}, "[2]": {"system": "ERK1/2", "test": "ERK phosphorylation after 6-OHDA, Western blot", "assay_type": "cell-based, Human", "protocol": "(§2) After treatment, SH-SY5Y cells were washed three times with PBS and then lysis with RIPA lysis buffer containing 1% PMSF and 1% Protease Inhibitor Cocktail and incubated for 30 min on ice. Cell lysates were centrifuged at 12,500 g for 20 min at 4° C. The supernatant was separated and the amount of protein was determined using the BCA protein assay kit (Thermo Scientific Pierce, USA). Protein samples (30 μg) were separated by SDS-PAGE (10% (w/v)) polyacrylamide gel and then transferred to a polyvinylidene difluoride (PVDF) membrane (Bio-Rad, Hercules, Calif.). Subsequently, the membrane was blocked with 5% (v/v) non-fat milk in PBST (PBS containing 0.1% Tween 20) for 1 h at room temperature. The blots were incubated overnight at 4° C. with primary antibodies. After three washes with PBST, the membranes were incubated with horseradish peroxidase-conjugated secondary antibodies (1:2000) in PBST with 5% non-fat milk for 1 h at room temperature. After repeated washes, proteins were visualized with an ECL advanced western blotting detection kit. Photographs of protein bands were taken by a Molecular Imager ChemiDoc XRS (Bio-Rad, Hercules, Calif.). Quantitative assessment of protein bands was done with Gel Doc™ XRS equipped with Quantity One software. […]"}, "[3]": {"system": "DA neurons in zebrafish", "test": "Anti-TH whole-mount immunostaining, 6-OHDA-induced DA neuron loss", "assay_type": "in vivo", "settings": "10 μM co-treatment, 250 μM 6-OHDA, 2 days", "protocol": "The wild type zebrafish was used for this study.\nZebrafish at one dpf were exposed to 250 μM 6-OHDA in the presence or absence of 10 μM Schi A or 3 μM nomifensine (Nom, a DAT (dopamine transporter) inhibitor used as a positive control) for 2 days. Then zebrafish were collected for immunostaining to detect the DA neurons. Zebrafish were fixed in 4% paraformaldehyde in PBS for 30 min, rinsed, and stored at −20° C. in 100% MtOH. Whole-mount immunostaining was done by standard methods (Zhang, Cheang et al. 2011). Briefly, paraformaldehyde fixed samples were blocked (2% goat serum and 0.1% BSA in PBST,) for 1 h at room temperature. A mouse monoclonal anti-tyrosine hydroxylase antibody (1:200 diluted in blocking buffer) was used as the primary antibody and incubated overnight with the sample at 4° C. […] Semi-quantification TH^+ cells were assessed by an investigator blinded to drug treatment history of zebrafish using Image-Pro Plus 6.0 software (Media Cybernetics, Silver Spring, Md., USA). Results are expressed as percentage of area of TH^+ cells in untreated control group.\nTo further evaluate the neuroprotective effect of SchiA in vivo, the inventors examined the DA neurons in zebrafish by whole-mount immunofluorescent staining with an antibody against tyrosine hydroxylase (TH). […] Data is expressed as percentage of the control group. […]"}, "[4]": {"test": "SchiA pharmacokinetics study in plasma", "assay_type": "in vivo, Sprague-Dawley rats", "settings": "microemulsion 30 mg/kg", "protocol": "Male Sprague-Dawley rats (SD rats) with body weight between 220 and 250 g and age between 6 and 7 weeks were supplied by Guangdong Medical Experiment Animal Center (Guangzhou, China). SchiA was prepared as microemulsion for i.v. and p.o. at 30 mg/kg. The concentration of SchiA microemulsion was 4.9 mg/ml. After administration of SchiA, blood samples were collected at 0.033, 0.167, 0.5, 1, 2, 4, 8, 12, 24 and 36 h, respectively. Plasma samples were obtained after centrifugation of the collected blood samples at 10,000 rpm for 5 min. Subsequently, in 100 μl plasma which was taken from the supernatant, 200 μl of 50% acetonitrile and 50% methanol were added. After vortexing for 20 s and centrifuging at 12,000 rpm for 10 min, the supernatant was collected and filtered through a 0.22 μm membrane, of which 20 μl was injected into the chromatographic system for analysis.\nQuantitative analysis of SchiA was completed on an Agilent series 1260 HPLC apparatus (Agilent Technologies, Santa Clara, Calif., USA) equipped with a vacuum degasser, a quaternary pump, a manual sampler and an ultraviolet detector. RP Phenonenex C-18 column (250 mm×4.6 mm, 5 μm) was used to separate at 35° C. with a mobile phase of water and methanol (83:17, v/v). The flow rate was 1 ml/min. The monitoring wavelength of SchiA was 230 nm.\nAnd then non-compartmental model of DAS 2.0 program was chosen to calculate the major pharmacokinetic parameters."}, "[5]": {"system": "Akt", "test": "p-Akt level after 6-OHDA, Western blot", "assay_type": "cell-based, Human", "protocol": "as §1\nThe inventors also investigated the contribution of the Akt pathway in the neuroprotective effects of SchiA. The inventors measured phosphorylation-Akt (p-Akt) levels after pre-treated with 60 μM SchiA for 12 h and then exposed to 400 μM 6-OHDA for another 4 h (FIGS. 6A and 6B). […]"}, "[6]": {"system": "GSK3β", "test": "GSK3β phosphorylation (Ser9) after 6-OHDA, Western blot", "assay_type": "cell-based, Human", "settings": "pretreated 12 h, then 400 μM 6-OHDA 4 h", "protocol": "as §2"}, "[7]": {"settings": "60 μM 12 h, then 400 μM 6-OHDA 4 h"}},
  "data": [
    {"smiles": "COc1cc2c(c(OC)c1OC)-c1c(cc3c(c1OC)OCO3)C[C@H](C)[C@](C)(O)[C@H]2OC(=O)c1ccccc1", "note": "[SchiA, Schisantherin A]", "values": [
      {"measurement": "MPP+-induced caspase-7 activation (active form)", "setting": "[1]", "value": "significant decrease"},
      {"measurement": "6-OHDA-induced reduction in ERK1/2 phosphorylation", "setting": "[2]; [7]", "value": "prevented the reduction in ERK1/2 phosphorylation"},
      {"measurement": "phosphorylated ERK1/2 level, compound alone", "setting": "[2]; 60 μM, without 6-OHDA", "value": "did not change"},
      {"measurement": "6-OHDA-induced dopaminergic neuron loss (area of TH+ cells)", "setting": "[3]", "value": "attenuate the dopaminergic neuron loss induced by 6-OHDA almost to the normal level"},
      {"measurement": "t1/2", "setting": "[4]; i.v.", "value": "15.88 ± 1.82", "unit": "h"},
      {"measurement": "Tmax", "setting": "[4]; rat plasma", "value": "1.33 ± 0.58", "unit": "h"},
      {"measurement": "t1/2", "setting": "[4]; p.o.", "value": "16.543 ± 6.95", "unit": "h"},
      {"measurement": "6-OHDA-induced reduction in p-Akt level", "setting": "[5]; [7]", "value": "prevented the reduction in p-Akt level"},
      {"measurement": "p-Akt level, compound alone", "setting": "[5]; 60 μM, without 6-OHDA", "value": "did not change"},
      {"measurement": "6-OHDA-induced repression of GSK3β phosphorylation at serine 9", "setting": "[6]", "value": "completely blocked"}
    ]}
  ]
}
